Data reported in patent US7713994B2 (Wyeth LLC, priority 2005, dated 2010).
Where two headings read alike, the source gives them in different places.

Assays:
cyclin D1/cdk 4 enzyme = molecular target: T1, cyclin D1/cdk 4 enzyme (Homo sapiens, UniProt P11802); assay: CDK4 ELISA kinase assay (phospho-Rb ser 795 detection); format: biochemical
T1 construct: made in house; host or cells: Sf9 insect cells, recombinant baculovirus
Method in brief: (§1)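 Inhibition was derived from A450 relative to control wells lacking compound, following an anti-phospho-Rb Ser795 sandwich of HRP detection. The reactions combined coated GST-Rb fragment, 200 μM ATP and baculovirus-expressed cyclin/CDK enzymes, incubated for 1 h at 30° C.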

cyclin B/CDK1 enzyme = molecular target: T2, cyclin B/CDK1 enzyme (Homo sapiens, UniProt P06493); assay: CDK1 ELISA kinase assay (phospho-Rb ser 795 detection); format: biochemical
T2 construct: purchased New England BioLabs; host or cells: Sf9 insect cells, recombinant baculovirus
Method in brief: as §1

HCT-116 = assay: Cytotoxicity assay (SRB), HCT-116; format: cell-based; settings: Homo sapiens, HCT-116, 72 h, read-out: In Vitro Cellular Activity IC50 HCT116
Method in brief: (§2)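 Percentage survival is derived from SRB absorbance (540 nm) versus untreated cells. Exposures were 3 days, except 6 days for BT474, at 37 °C and 7% CO2.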

LoVo = assay: Cytotoxicity assay (SRB), LoVo; format: cell-based; settings: Homo sapiens, LoVo, 72 h, read-out: In Vitro Cellular Activity IC50 LOVO
Method in brief: as §2

BT474 = assay: Cytotoxicity assay (SRB), BT474; format: cell-based; settings: Homo sapiens, BT-474, 144 h, read-out: In Vitro Cellular Activity IC50 BT474
Method in brief: as §2

MCF-7 = assay: Cytotoxicity assay (SRB), MCF-7; format: cell-based; settings: Homo sapiens, MCF7, 72 h, read-out: In Vitro Cellular Activity IC50 MCF-7
Method in brief: as §2

cyclin E/CDK2 enzyme = molecular target: T3, cyclin E/CDK2 enzyme (Homo sapiens, UniProt P24941); assay: CDK2 ELISA kinase assay (phospho-Rb ser 795 detection); format: biochemical
T3 construct: made in house; host or cells: Sf9 insect cells, recombinant baculovirus
Method in brief: as §1

[1] = In Vitro Enzyme Assay, cyclin D1/cdk 4, read-out: CDK4 IC50
[2] = In Vitro Enzyme Assay, cyclin B/CDK1, read-out: CDK1 IC50
[3] = In Vitro Enzyme Assay, cyclin E/CDK2, read-out: CDK2 IC50
[4] = In Vitro Enzyme Assays, 200 μM ATP, read-out: CDK4 IC50
[5] = In Vitro Enzyme Assays, read-out: CDK1 IC50
[6] = In Vitro Enzyme Assays, read-out: CDK2 IC50

T2 sequence (P06493 whole entry): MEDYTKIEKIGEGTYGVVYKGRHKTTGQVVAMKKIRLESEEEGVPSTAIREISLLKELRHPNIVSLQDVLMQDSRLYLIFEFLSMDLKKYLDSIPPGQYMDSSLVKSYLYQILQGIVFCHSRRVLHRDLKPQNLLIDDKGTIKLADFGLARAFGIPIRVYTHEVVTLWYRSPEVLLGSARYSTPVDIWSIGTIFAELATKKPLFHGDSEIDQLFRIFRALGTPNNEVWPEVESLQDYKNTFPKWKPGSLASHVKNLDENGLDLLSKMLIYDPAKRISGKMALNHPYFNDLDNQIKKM
T2 sequence (P14635 whole entry partner): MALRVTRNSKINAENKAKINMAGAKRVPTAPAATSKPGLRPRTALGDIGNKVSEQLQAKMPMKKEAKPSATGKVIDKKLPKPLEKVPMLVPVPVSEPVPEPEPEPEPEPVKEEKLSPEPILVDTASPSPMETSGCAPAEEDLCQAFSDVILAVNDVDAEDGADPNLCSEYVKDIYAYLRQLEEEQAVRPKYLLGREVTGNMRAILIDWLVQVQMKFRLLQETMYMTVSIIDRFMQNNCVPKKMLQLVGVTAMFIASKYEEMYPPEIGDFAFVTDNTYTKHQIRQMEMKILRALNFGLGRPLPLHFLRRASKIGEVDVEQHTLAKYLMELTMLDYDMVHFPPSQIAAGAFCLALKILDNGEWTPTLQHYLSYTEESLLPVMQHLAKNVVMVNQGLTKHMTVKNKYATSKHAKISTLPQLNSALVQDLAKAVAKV
T1 sequence (P11802 whole entry, species assumed): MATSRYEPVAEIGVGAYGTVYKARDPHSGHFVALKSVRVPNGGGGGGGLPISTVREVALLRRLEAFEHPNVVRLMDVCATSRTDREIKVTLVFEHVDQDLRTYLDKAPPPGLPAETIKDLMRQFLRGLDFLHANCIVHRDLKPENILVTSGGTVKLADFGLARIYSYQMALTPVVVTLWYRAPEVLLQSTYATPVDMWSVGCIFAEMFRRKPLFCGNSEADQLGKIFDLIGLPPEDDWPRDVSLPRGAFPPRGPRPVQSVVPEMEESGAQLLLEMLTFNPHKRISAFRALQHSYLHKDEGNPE
T1 sequence (P24385 whole entry partner, species assumed): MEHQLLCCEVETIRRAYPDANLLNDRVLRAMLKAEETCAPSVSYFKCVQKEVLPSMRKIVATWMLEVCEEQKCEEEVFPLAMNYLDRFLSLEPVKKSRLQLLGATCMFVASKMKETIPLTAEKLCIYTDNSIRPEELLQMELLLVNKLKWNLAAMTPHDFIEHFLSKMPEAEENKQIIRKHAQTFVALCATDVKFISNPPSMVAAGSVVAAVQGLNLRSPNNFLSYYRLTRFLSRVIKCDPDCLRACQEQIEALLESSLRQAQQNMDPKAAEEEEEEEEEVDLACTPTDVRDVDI

Row | SMILES | IC50 (cyclin D1/cdk 4 enzyme; [1]) | IC50 (cyclin B/CDK1 enzyme; [2]) | IC50 (HCT-116; HCT116 cells, 3 days, SRB) | IC50 (LoVo; LoVo cells, 3 days, SRB) | IC50 (BT474; BT474 cells, 6 days, SRB) | IC50 (MCF-7; MCF-7 cells, 3 days, SRB) | IC50 (cyclin E/CDK2 enzyme; [3]) | IC50 (cyclin D1/cdk 4 enzyme; [4]) | IC50 (cyclin B/CDK1 enzyme; [5]) | IC50 (HCT-116) | IC50 (LoVo) | IC50 (BT474) | IC50 (MCF-7) | IC50 (cyclin E/CDK2 enzyme; [6]) | IC50 (HCT-116; HCT116 cells, SRB, three days) | IC50 (LoVo; LoVo cells, SRB, three days) | IC50 (BT474; BT474 cells, SRB, 6 days) | IC50 (MCF-7; MCF-7 cells, SRB, three days)
1 | O=C1NC(=O)c2ccc(-c3ccco3)cc2C1=CNCc1ccc(O)c(O)c1 [Example 621, 4-[(3,4-Dihydroxy-benzylamino)-methylene]-6-furan-2-yl-4H-isoquinoline-1,3-dione] | 0.01 µM | 8.1 µM | 9.7 µM | 8.7 µM | 3.5 µM | 6.8 µM | 4.1 µM | – | – | – | – | – | – | – | – | – | – | –
2 | NS(=O)(=O)c1ccc(CNC=C2C(=O)NC(=O)c3ccc(C=Cc4cnccn4)cc32)cc1 [Example 655, 4-({[1,3-Dioxo-6-(2-pyrazin-2-yl-vinyl)-2,3-dihydro-1H-isoquinolin-4-ylidenemethyl]-amino}-methyl)-benzenesulfonamide] | 0.57 µM | 23.6 µM | 1.2 µM | 7.6 µM | 2 µM | 7.7 µM | 11 µM | – | – | – | – | – | – | – | – | – | – | –
3 | CN(C)NC(=O)Cc1ccc(N/C=C2\C(=O)NC(=O)c3ccc(Br)cc32)cc1 [Example 283, 2-(4-{[(Z)-(6-Bromo-1,3-dioxo-2,3-dihydroisoquinolin-4(1H)-ylidene)methyl]amino}phenyl)-N′,N′-dimethylacetohydrazide] | – | – | – | – | – | – | – | 10 µM | > 50 µM | 17 µM | 17 µM | 16 µM | 9.8 µM | > 50 µM | – | – | – | –
4 | CN(CCN1CCCC1)c1ccc(N/C=C2\C(=O)NC(=O)c3ccc(Br)cc32)cc1 [Example 864, (4Z)-6-Bromo-4-[({4-[methyl(2-pyrrolidin-1-ylethyl)amino]phenyl}amino)methylene]isoquinoline-1,3(2H,4H)-dione] | 2.5 µM | > 50 µM | 3.1 µM | 3.8 µM | 7.9 µM | 3.6 µM | > 50 µM | – | – | – | – | – | – | – | – | – | – | –
5 | O=C1NC(=O)c2ccc(-c3cccc(C(=O)O)c3)cc2C1=CNCc1ccc(O)c(O)c1 [Example 771, 3-{4-[(3,4-Dihydroxy-benzylamino)-methylene]-1,3-dioxo-1,2,3,4-tetrahydro-isoquinolin-6-yl}-benzoic acid] | 0.82 µM | 26.5 µM | 39.5 µM | 48 µM | 33.3 µM | > 50 µM | 10 µM | – | – | – | – | – | – | – | – | – | – | –
6 | CC(C)N1CCN(c2ccc(N/C=C3\C(=O)NC(=O)c4ccc(I)cc43)cn2)CC1 [Example 413] | – | – | 1.9 µM | 3.3 µM | 5 µM | 5.8 µM | – | 0.19 µM | > 50 µM | – | – | – | – | > 50 µM | – | – | – | –
7 | COc1ccc(CN/C=C2\C(=O)NC(=O)c3ccc(-c4ccsc4)cc32)cc1O [Example 88, (4Z)-4-{[(3-Hydroxy-4-methoxybenzyl)amino]methylene}-6-thien-3-ylisoquinoline-1,3(2H,4H)-dione] | – | – | – | – | – | – | – | 0.002 µM | 23.3 µM | – | – | – | – | 18.3 µM | 3.4 µM | 2.4 µM | 6 µM | 9.1 µM
8 | O=C1NC(=O)c2ccc(-c3cccc(Cl)c3)cc2C1=CNCc1ccc(O)c(O)c1 [Example 779, 6-(3-Chloro-phenyl)-4-[(3,4-dihydroxy-benzylamino)-methylene]-4H-isoquinoline-1,3-dione] | 0.74 µM | > 50 µM | 15 µM | 14.1 µM | 20.3 µM | 12.7 µM | 31.1 µM | – | – | – | – | – | – | – | – | – | – | –
9 | CN1CCN(c2ncc(N/C=C3\C(=O)NC(=O)c4ccc(I)cc43)cn2)CC1 [Example 475, (4Z)-6-Iodo-4-({[2-(4-methylpiperazin-1-yl)pyrimidin-5-yl]amino}methylene)isoquinoline-1,3(2H,4H)-dione] | 0.7 µM | > 50 µM | 3.2 µM | 7.7 µM | 8.1 µM | 2.2 µM | > 50 µM | – | – | – | – | – | – | – | – | – | – | –
10 | CN(CCO)c1ccc(N/C=C2\C(=O)NC(=O)c3ccc(Br)cc32)cc1 [Example 244, (4Z)-6-Bromo-4-[({4-[(2-hydroxyethyl)(methyl)amino]phenyl}amino)methylene]isoquinoline-1,3(2H,4H)-dione] | – | – | – | – | – | – | – | 45.5 µM | > 50 µM | – | – | – | – | > 50 µM | 4.9 µM | 15 µM | 9.4 µM | 19 µM
11 | O=C1NC(=O)c2ccc(Br)cc2/C1=C/NCc1ccc(OCCN2CCCC2)c(O)c1 [Example 143, (4Z)-6-Bromo-4-({[3-hydroxy-4-(2-pyrrolidin-1-ylethoxy)benzyl]amino}methylene) isoquinoline-1,3(2H,4H)-dione] | – | – | – | – | – | – | – | 0.06 µM | 13.6 µM | – | – | – | – | 1.1 µM | 3 µM | 8.8 µM | 5.7 µM | 4.3 µM
12 | O=C1NC(=O)c2ccc(-c3ccsc3)cc2/C1=C/Nc1ccc(CN2CCCCC2)cc1 [Example 104, (4Z)-4-({[4-(Piperidin-1-ylmethyl)phenyl]amino}methylene)-6-thien-3-ylisoquinoline-1,3(2H,4H)-dione] | – | – | – | – | – | – | – | 0.05 µM | > 50 µM | – | – | – | – | > 50 µM | 1 µM | 1.3 µM | 3 µM | 3.4 µM
13 | O=C1NC(=O)c2ccc(-c3cccc4cccnc34)cc2C1=CNCc1ccc(O)c(O)c1 [Example 642, 4-[(3,4-Dihydroxy-benzylamino)-methylene]-6-quinolin-8-yl-4H-isoquinoline-1,3-dione] | 1 µM | > 50 µM | 20.5 µM | 12.1 µM | 14.2 µM | 12.7 µM | 28.3 µM | – | – | – | – | – | – | – | – | – | – | –
14 | C#CC(=O)Nc1ccc(CN/C=C2\C(=O)NC(=O)c3ccc(I)cc32)cc1O [Example 340, N-[2-Hydroxy-4-({[(Z)-(6-iodo-1,3-dioxo-2,3-dihydroisoquinolin-4(1H)-ylidene)methyl]amino}methyl)phenyl]prop-2-ynamide] | – | – | – | – | – | – | – | 0.07 µM | 6.1 µM | – | – | – | – | 1.6 µM | 1.2 µM | 1.4 µM | 1.4 µM | 1.4 µM
15 | CN1CCN(c2ccc(N/C=C3\C(=O)NC(=O)c4ccc(-c5ccc(C=O)cc5)cc43)cc2)CC1 [Example 115, 4-[(4Z)-4-({[4-(4-Methylpiperazin-1-yl)phenyl]amino}methylene)-1,3-dioxo-1,2,3,4-tetra-hydroisoquinolin-6-yl]benzaldehyde] | – | – | – | – | – | – | – | 0.13 µM | 8.2 µM | – | – | – | – | 7.7 µM | 1.6 µM | 6.5 µM | 6.7 µM | 4.7 µM
16 | COc1ccc(CNC=C2C(=O)NC(=O)c3ccc(C=CCc4cccc(OC)c4O)cc32)cc1O [Example 827, 4-[(3-Hydroxy-4-methoxy-benzylamino)-methylene]-6-[3-(2-hydroxy-3-methoxy-phenyl)-propenyl]-4H-isoquinoline-1,3-dione] | 0.12 µM | > 50 µM | 10.8 µM | 18.1 µM | 26.5 µM | 17.5 µM | 45.5 µM | – | – | – | – | – | – | – | – | – | – | –
17 | CN(CCN1CCCC1)c1ccc(N/C=C2\C(=O)NC(=O)c3ccc(Br)cc32)cc1 [Example 255, (4Z)-6-Bromo-4-[({4-[methyl(2-pyrrolidin-1-ylethyl)amino]phenyl}amino)methylene]isoquinoline-1,3(2H,4H)-dione] | – | – | – | – | – | – | – | 2.5 µM | > 50 µM | – | – | – | – | > 50 µM | 3.1 µM | 3.8 µM | 7.9 µM | 3.6 µM
18 | C=CC(=O)Nc1ccc(CN/C=C2\C(=O)NC(=O)c3ccc(I)cc32)cc1O [Example 342, N-[2-Hydroxy-4-({[(Z)-(6-iodo-1,3-dioxo-2,3-dihydroisoquinolin-4(1H)-ylidene)methyl]amino}methyl)phenyl]acrylamide] | – | – | – | – | – | – | – | 0.01 µM | 2.9 µM | – | – | – | – | 0.86 µM | 0.12 µM | 0.09 µM | 0.07 µM | 0.15 µM
